Article PMC10060354, “Discovery of a small molecule ligand of FRS2 that inhibits invasion and tumor growth” (Cellular Oncology, 2022)
Values joined by “and” are separate entries in the source; they are usually repeats but may differ in a detail not shown here. Identical values can stand only once. Like-named read-outs stand apart in the source and are kept apart here. Values belong to the molecule of their own block, whether it stands above or below them.

Assays:
[1] = tested on: ERK (pT202/Y204); assay: Immunoblotting, ERK phosphorylation; type: cell-based, human; details: DAOY, SW780, M059K, SKOV3, AGS, DMS114 and RT-112 cells; 10 µM compound or 1 µM BGJ398
Method: (§1) Cells were serum starved o.n. and 10 µM compound or 1 µM (BGJ398) were added 3 h before stimulation with 100 ng/ml bFGF for 15 min. Cells were lysed in RIPA buffer containing protease inhibitor cocktail and lysates resolved by SDS-PAGE. Membranes were probed with primary antibodies against phospho-FRS2, FRS2, phospho-ERK1/2, ERK1/2, pAKT, AKT and tubulin. Integrated density of immuno-reactive bands was quantified using Adobe Photoshop CS3. Integrated densities of phospho bands relative to non-phospho bands of same protein were calculated and plotted as fold-change relative to untreated control conditions. Compounds and BGJ398 were added in DMSO and corresponding DMSO concentrations were used in control samples.

[2] = tested on: bFGF-sensitive (M059K, RT-112, SW780) and bFGF-insensitive (SKOV3, AGS and HCT116) cell lines; assay: SIA, collagen I invasion in panel of human cancer cell models; type: cell-based; details: 10 µM
Method: 1000—2500 cells/well in 100 μl were seeded in 96 well Corning® Spheroid microplate (CLS4520, Sigma-Aldrich) or in cell-repellent 96 well microplate (650,790, Greiner Bio-one). SIA and analysis was performed as described before. In brief: After spheroid formation (24 – 72 h after seeding), 70 µl medium was removed and replaced with the collagen mixture (2.5 mg/ml Pure Col Collagen I (Advanced Biomatrix)), DMEM 1x (from 10 × stock, Sigma, D2429) and 0.4% Sodium bicarbonate (Sigma, S8761)), resulting in a final collagen concentration of 1.75 mg/ml. Embedded spheroids were stimulated with bFGF (100 ng/ml if not otherwise stated), HGF (30 ng /ml) or EGF (20 ng/ml) and distance of invaded cells quantified 24 – 48 h after embedding. Compounds and BGJ398 were added in Dimethylsulfoxid (DMSO) and corresponding DMSO concentrations were used in control samples.

[3] = In vivo bioavailability / PK after 1 mg/kg IV or 10 mg/kg PO; parameters: species or system Male ICR mice; details: for Vd: read-out: Vss; for C0: read-out: C0 after IV administration; for Cmax: read-out: Cmax (oral bioavailability) after PO administration
Method: In vivo bioavailability studies were performed by Pharmacology Discovery Services Taiwan, Ltd., (New Taipei City, Taiwan). Male ICR mice weighing 20—30 g were provided by BioLasco Taiwan (under Charles River Laboratories Licensee). Animals were acclimated for 3 days prior to use and were confirmed with good health. All animals were maintained in a hygienic environment with controlled temperature (20—24 °C), humidity (30%—70%) and 12 h light/dark cycles. Free access to sterilized standard lab diet [MFG (Oriental Yeast Co., Ltd., Japan)] and autoclaved tap water. A pharmacokinetic (PK) study was performed in male ICR mice following intravenous (IV) and oral (PO) administration of compound 7 and E12 and IV administration of the test compound 3.14. The three test compounds (7, E12 and 3.14) were formulated in 1% dimethyl sulfoxide (DMSO)/10% Solutol® HS-15/ phosphate buffered saline (PBS) at 0.2 mg/mL and 1 mg/mL for IV and PO administration, respectively. The dosing volumes were 5 ml/kg for IV and 10 ml/kg for PO. The dose was 1 mg/kg for IV and 10 mg/kg for PO routes.

[4] = Cell viability (cytotoxicity, MTT) using HepG2; type: cell-based, human; details: human, HepG2 cells, 72 h, summary sheet, read-out: MTT (AC50) Conc at which 50% of maximum efficacy is reached
Outline: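 Compounds were tested at 8 concentrations in triplicate on HepG2 cells plated 24 h beforehand, with 72 h exposure in 1% DMSO medium. MTT was loaded 1 h before the end, solubilized in DMSO and read at 570 nm. Minimum effective concentration is the lowest concentration exceeding the significance level, given dose-response or two consecutive points above it.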

[5] = tested on: FRS2 (Y436) phosphorylation; assay: Immunoblotting, FRS2 phosphorylation; type: cell-based, human; details: RT-112 cells
Method: as §1

[6] = Solubility at the concentration required for the biophysical assays; type: physicochemical; details: 5% DMSO
[7] = male, ICR, mouse, plasma, iv, 1 mg/kg, IV, read-out: AUClast
[8] = male, ICR, mouse, plasma, iv, 1 mg/kg, mice, 1 mg/kg IV, read-out: AUClast after IV administration
[9] = male, ICR, mouse, plasma, po, 10 mg/kg, mice, 10 mg/kg PO, read-out: AUClast after PO administration
[10] = male, ICR, mouse, plasma, 1 mg/kg, IV
[11] = male, ICR, mouse, plasma, 10 mg/kg, PO
[12] = male, ICR, mouse, mice, 1 mg/kg IV, plasma
[13] = male, ICR, mouse, mice, 10 mg/kg PO, plasma
[14] = 10 mg/kg PO, time 0.167 h, mouse#1-3
[15] = 10 mg/kg PO, time 0.5 h, mouse#1-3
[16] = 10 mg/kg PO, time 1 h, mouse#1-3
[17] = 10 mg/kg PO, time 2 h, mouse#1-3
[18] = 10 mg/kg PO, time 4 h, mouse#1-3
[19] = 10 mg/kg PO, time 6 h, mouse#1-3
[20] = 10 mg/kg PO, time 8 h, mouse#1-3
[21] = 10 mg/kg PO, time 24 h, mouse#1-3
[22] = mg/kg IV, time 0.167 h, mouse#1-3
[23] = mg/kg IV, time 0.5 h, mouse#1-3

SMILES: O=[N+]([O-])c1c(Cl)cc(O)c2c1C1C=CCC1C(c1ccc(Cl)cc1)N2 (centres unmarked) [Compound 7]
basal and bFGF-induced phosphorylation of ERK (result in words) [1]: inhibited basal and bFGF-induced phosphorylation
collagen I invasion across cancer cell lines (result in words) [2]: inhibited collagen I invasion in both bFGF-sensitive and bFGF-insensitive cell lines
AUC Extr (%) ([3]; 1 mg/kg, IV): 1.2%
AUC Extr (%) ([3]; 10 mg/kg, PO): 18.1%
AUC/D ([3]; 10 mg/kg, PO): 407 kg·ng·h/mL/mg
AUClast (H*ng/ml) ([3]; 10 mg/kg, PO): 3333 H*ng/ml
AUC(0-t) [3, 7]: 393 ng·h/mL
AUC(0-t) [3, 8]: 398 ng·h/mL
AUC(0-t) [3, 9]: 3330 ng·h/mL
AUC(0-inf) [3, 10]: 398 ng·h/mL
MRT [3, 10]: 17.4 min
clearance [3, 10]: 42 mL/min/kg
half-life [3, 10]: 68.4 min
Vd [3, 10]: 0.7 L/kg
AUC(0-inf) [3, 11]: 4070 ng·h/mL
MRT [3, 11]: 283 min
Tmax [3, 11]: 30 min
bioavailability [3, 11]: 85%
half-life [3, 11]: 230 min
C0 [3, 12]: 2870 ng/mL
Cmax [3, 13]: 1400 ng/mL
CL1/2 after IV administration ([3]; mice, 1 mg/kg IV): 1.14 h
CL1/2 after PO administration ([3]; mice, 10 mg/kg PO): 3.83 h
AC50 at 72 h [4]: 7.02 µM
basal and bFGF-induced phosphorylation of FRS2Y436 (result in words) [5]: reduced basal and bFGF-induced phosphorylation
solubility for biophysical assays (result in words) [6]: soluble in 5% DMSO

AUC Extr (%) ([3]; 1 mg/kg, IV): 0.5%
in vivo PK raw, level per mouse [3, 14]: 13 and 10 and 15
in vivo PK raw, level per mouse (µM) [3, 14]: 0.02964 µM and 0.04446 µM
in vivo PK raw, level per mouse [3, 15]: 16 and 11 and 3
in vivo PK raw, level per mouse (µM) [3, 15]: 0.04742 µM and 0.0326 µM and 0.008892 µM
in vivo PK raw, level per mouse [3, 16]: 1 and 2 and 10
in vivo PK raw, level per mouse [3, 17]: 3 and 0 and 2
in vivo PK raw, level per mouse (µM) [3, 17]: 0.008892 µM and 0 µM and 0.005928 µM
in vivo PK raw, level per mouse [3, 18]: 5 and 2 (2×)
in vivo PK raw, level per mouse (µM) [3, 18]: 0.01482 µM and 0.005928 µM (2×)
in vivo PK raw, level per mouse [3, 19]: 0 (2×) and 2
in vivo PK raw, level per mouse (µM) [3, 19]: 0 µM (2×) and 0.005928 µM
in vivo PK raw, level per mouse [3, 20]: 1
in vivo PK raw, level per mouse (µM) [3, 20]: 0.002964 µM
in vivo PK raw, level per mouse [3, 21]: 0
in vivo PK raw, level per mouse (µM) [3, 21]: 0 µM
AUC Extr (%) ([3]; 10 mg/kg, PO): 14.8%
AUC/D ([3]; 10 mg/kg, PO): 3 kg·ng·h/mL/mg
AUClast (H*ng/ml) ([3]; 10 mg/kg, PO): 22 H*ng/ml
AUC(0-t) [3, 7]: 85 ng·h/mL
concentration at 0.167 h ([3]; male, ICR, mouse, plasma, iv, 1 mg/kg, mg/kg IV, time 0.167 h, mouse#1-3, read-out: in vivo PK raw, level per mouse): 1360 nM
concentration at 0.5 h ([3]; male, ICR, mouse, plasma, iv, 1 mg/kg, mg/kg IV, time 0.5 h, mouse#1-3, read-out: in vivo PK raw, level per mouse): 305 nM
concentration at 1 h ([3]; male, ICR, mouse, plasma, iv, 1 mg/kg, mg/kg IV, time 1 h, mouse#1-3, read-out: in vivo PK raw, level per mouse): 29.6 nM
concentration at 2 h ([3]; male, ICR, mouse, plasma, iv, 1 mg/kg, mg/kg IV, time 2 h, mouse#1-3, read-out: in vivo PK raw, level per mouse): 5.93 nM
concentration at 4 h ([3]; male, ICR, mouse, plasma, iv, 1 mg/kg, mg/kg IV, time 4 h, mouse#1-3, read-out: in vivo PK raw, level per mouse): 0 nM
concentration at 6 h ([3]; male, ICR, mouse, plasma, iv, 1 mg/kg, mg/kg IV, time 6 h, mouse#1-3, read-out: in vivo PK raw, level per mouse): 0 nM
concentration at 8 h ([3]; male, ICR, mouse, plasma, iv, 1 mg/kg, mg/kg IV, time 8 h, mouse#1-3, read-out: in vivo PK raw, level per mouse): 0 nM
concentration at 24 h ([3]; male, ICR, mouse, plasma, iv, 1 mg/kg, mg/kg IV, time 24 h, mouse#1-3, read-out: in vivo PK raw, level per mouse): 0 nM
AUC(0-t) [3, 8]: 85 ng·h/mL
concentration at 0.167 h ([3]; male, ICR, mouse, plasma, oral, 10 mg/kg, 10 mg/kg PO, time 0.167 h, mouse#1-3, read-out: in vivo PK raw, level per mouse): 38.5 nM
concentration at 8 h ([3]; male, ICR, mouse, plasma, oral, 10 mg/kg, 10 mg/kg PO, time 8 h, mouse#1-3, read-out: in vivo PK raw, level per mouse): 2.96 nM
concentration at 24 h ([3]; male, ICR, mouse, plasma, oral, 10 mg/kg, 10 mg/kg PO, time 24 h, mouse#1-3, read-out: in vivo PK raw, level per mouse): 0 nM
AUC(0-t) [3, 9]: 22 ng·h/mL
AUC(0-inf) [3, 10]: 86 ng·h/mL
MRT [3, 10]: 6.6 min
clearance [3, 10]: 195 mL/min/kg
half-life [3, 10]: 9 min
Vd [3, 10]: 1.3 L/kg
AUC(0-inf) [3, 11]: 26 ng·h/mL
MRT [3, 11]: 233 min
Tmax [3, 11]: 10.2 min
bioavailability [3, 11]: 3%
half-life [3, 11]: 163 min
C0 [3, 12]: 762 ng/mL
Cmax [3, 13]: 13 ng/mL
in vivo PK raw, level per mouse [3, 22]: 459 and 369 and 455
in vivo PK raw, level per mouse (µM) [3, 22]: 1.094 µM and 1.349 µM
in vivo PK raw, level per mouse [3, 23]: 103 and 104 and 127
in vivo PK raw, level per mouse (µM) [3, 23]: 0.3082 µM and 0.3764 µM
in vivo PK raw, level per mouse ([3]; mg/kg IV, time 1 h, mouse#1-3): 10 and 13 and 14
in vivo PK raw, level per mouse (µM) ([3]; mg/kg IV, time 1 h, mouse#1-3): 0.03853 µM and 0.04149 µM
in vivo PK raw, level per mouse ([3]; mg/kg IV, time 2 h, mouse#1-3): 2
in vivo PK raw, level per mouse (µM) ([3]; mg/kg IV, time 2 h, mouse#1-3): 0.005928 µM
in vivo PK raw, level per mouse ([3]; mg/kg IV, time 4 h, mouse#1-3): 0
in vivo PK raw, level per mouse (µM) ([3]; mg/kg IV, time 4 h, mouse#1-3): 0 µM
in vivo PK raw, level per mouse ([3]; mg/kg IV, time 6 h, mouse#1-3): 0
in vivo PK raw, level per mouse (µM) ([3]; mg/kg IV, time 6 h, mouse#1-3): 0 µM
in vivo PK raw, level per mouse ([3]; mg/kg IV, time 8 h, mouse#1-3): 0
in vivo PK raw, level per mouse (µM) ([3]; mg/kg IV, time 8 h, mouse#1-3): 0 µM
in vivo PK raw, level per mouse ([3]; mg/kg IV, time 24 h, mouse#1-3): 0
in vivo PK raw, level per mouse (µM) ([3]; mg/kg IV, time 24 h, mouse#1-3): 0 µM
CL1/2 after IV administration ([3]; mice, 1 mg/kg IV): 0.15 h
CL1/2 after PO administration ([3]; mice, 10 mg/kg PO): 2.71 h
SMILES: Cc1[nH]nc(-c2ccc(O)c(C)c2O)c1-c1nc2ccccc2s1 [Compound E12]
collagen I invasion across cancer cell lines (result in words) [2]: inhibited collagen I invasion only in bFGF-sensitive cell lines M059K, RT-112 and SW780
in vivo PK raw, level per mouse (µM) [3, 16]: 0.002964 µM and 0.005928 µM and 0.02964 µM
AC50 at 72 h [4]: 23.7 µM
